Assay results reported in patent US20160166576A1, “SUBSTITUTED AMIDOPYRAZOLE INHIBITORS OF INTERLEUKIN RECEPTOR-ASSOCIATED KINASES (IRAK-4)” (MERCK SHARP & DOHME CORP., priority 2013, published 2016).
Like-named read-outs stand apart in the source and are kept apart here.

Columns and labels:
IRAK4 = target: T1, IRAK4 (Homo sapiens, UniProt Q9NWZ3); test: IRAK4 IMAP kinase activity assay (fluorescence polarization); type: biochemical; settings: 1 nM GST tagged IRAK4, 100 μM ATP, 1 hour at 25° C.
T1 construct: GST; purchased SignalChem
T1 sequence (Q9NWZ3 1-460): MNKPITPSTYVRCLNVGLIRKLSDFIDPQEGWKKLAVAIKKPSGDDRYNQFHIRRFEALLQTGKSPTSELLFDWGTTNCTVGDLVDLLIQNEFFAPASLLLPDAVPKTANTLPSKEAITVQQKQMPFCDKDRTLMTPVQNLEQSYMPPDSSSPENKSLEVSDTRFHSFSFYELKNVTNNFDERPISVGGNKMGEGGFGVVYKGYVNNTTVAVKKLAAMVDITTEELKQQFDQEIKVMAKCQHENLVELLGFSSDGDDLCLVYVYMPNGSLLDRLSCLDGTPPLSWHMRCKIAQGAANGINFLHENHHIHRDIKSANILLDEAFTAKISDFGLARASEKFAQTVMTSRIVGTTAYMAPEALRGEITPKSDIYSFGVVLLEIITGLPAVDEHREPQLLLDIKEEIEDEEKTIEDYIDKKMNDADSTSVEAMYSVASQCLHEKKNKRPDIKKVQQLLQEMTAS
Procedure: Determination of IRAK4 Kinase Activity
The kinase activity of IRAK4 is determined by its ability to catalyze the phosphorylation of a fluorescent polypeptide substrate. The extent of phosphorylation is measured using IMAP technology (Molecular Devices) where the phosphorylated fluorescent substrate binds to the large M(III)-based nanoparticles which reduces the rotational speed of the substrate and thus increases its fluorescent polarization (FP).
Procedure: A 20 μl reaction mixture contains 10 mM TriHC1, pH 7.2, 1 nM GST tagged IRAK4 (SignalChem), 100 nM fluorescent peptide substrate (RP7030, Molecular Devices), 100 μM ATP, 1 mM DTT, 2 mM MgCl2, and 0.01% Tween 20. The reaction is initiated by the addition of ATP. After incubation for 1 hour at 25° C., 60 μl of Progressive IMAP Reagent (Molecular Devices) is added to stop the reaction. Change in RP7030's FP is determined by a FP reader (EnVision Multilabel Reader, Perkin Elmer).

[1] = Rat pharmacokinetics after PO and SC dosing; type: in vivo, female Lewis rats; settings: for Cmax: rat, fed female Lewis rats, plasma; for Cmax compared to that of Compound A: rats, at either 30 mpk SC dosing or 30 mpk PO dosing or both
Procedure: Pharmacokinetic Properties
Pharmacokinetic parameters were determined following PO and SC dosing at 30 mg/kg in fed female Lewis rats. Compounds were formulated for both PO and SC dosing in 50/50 (v/v) 50% captisol/50 mM citrate buffer (pH 4). Plasma samples obtained from dosed animals were prepared for analysis by means of a single step protein precipitation technique by adding 200 μL of acetonitrile to 50 μL aliquots of individual subject samples. Samples were mixed by vortex for homogeneity and then subjected to centrifugation at 3500 rpm for 10 min. The supernatant (200 μL) was collected and injected into the LC-MS/MS for analysis. Pharmacokinetic parameters were calculated using established non-compartmental methods.

[2] = 30 mg/kg PO, read-out: Rat PK, 30 mpk PO, Cmax
[3] = 30 mg/kg SC, read-out: Rat PK, 30 mpk SC, Cmax

Row | SMILES | IC50 (IRAK4) [nM] | Cmax [1, 2] [µM] | Cmax [1, 3] [µM] | Cmax compared to that of Compound A [1]
1 | Cc1ccc(-n2nc(N3CCN([C@H]4CCS(=O)(=O)C4)CC3)cc2NC(=O)c2cnn3cccnc23)nc1 [Compound 9, N-[3-{4-[(3S)-1,1-dioxidotetrahydrothiophen-3-yl]piperazin-1-yl}-1-(5-methylpyridin-2-yl)-1H-pyrazol-5-yl]pyrazolo[1,5-a]pyrimidine-3-carboxamide] | 2 | 7.7 | 8.1 | superior
2 | Cc1ccc(-n2nc(N3CCN(C)CC3)cc2NC(=O)c2cnn3ccccc23)nc1 [Compound A, reference compound] | 2 | 1 | 3.3 | 
3 | Cc1ccc(-n2nc(N3CCN([C@@H]4CCS(=O)(=O)C4)CC3)cc2NC(=O)c2cnn3cccnc23)nc1 [Compound 8, N-[3-{4-[(3R)-1,1-dioxidotetrahydrothiophen-3-yl]piperazin-1-yl}-1-(5-methylpyridin-2-yl)-1H-pyrazol-5-yl]pyrazolo[1,5-a]pyrimidine-3-carboxamide] | 1 | 8.6 | 1.5 | superior
4 | Cc1ccc(-n2nc(N3CCN(CC(N)=O)CC3)cc2NC(=O)c2cnn3cccnc23)nc1 [Compound 16, N-{3-[4-(2-amino-2-oxoethyl)piperazin-1-yl]-1-(5-methylpyridin-2-yl)-1H-pyrazol-5-yl}pyrazolo[1,5-a]pyrimidine-3-carboxamide] | 4 | 4.3 | 16.1 | superior
